Measurements from ChEMBL document CHEMBL3044981, “Production and optimization of oxytetracycline by a new isolate Streptomyces rimosus using response surface methodology” (2012).
In brackets after ≈: the same amount, converted by molar mass.

Experiments:
Assay type in all cases: functional
[1] = system: Staphylococcus epidermidis; assay: Antibacterial activity against multidrug-resistant Staphylococcus epidermidis MTCC 435 by broth dilution method
Staphylococcus aureus = assay: Antibacterial activity against multidrug-resistant Staphylococcus aureus MTCC 737 by broth dilution method
Pseudomonas aeruginosa = assay: Antibacterial activity against multidrug-resistant Pseudomonas aeruginosa by broth dilution method
Escherichia coli = assay: Antibacterial activity against multidrug-resistant Escherichia coli MTCC 1667 by broth dilution method
Klebsiella pneumoniae = assay: Antibacterial activity against multidrug-resistant Klebsiella pneumoniae MTCC 2405 by broth dilution method
Proteus vulgaris = assay: Antibacterial activity against multidrug-resistant Proteus vulgaris MTCC 1771 by broth dilution method
Salmonella typhi = assay: Antibacterial activity against multidrug-resistant Salmonella enterica subsp. enterica serovar Typhi MTCC 734 by broth dilution method

## CN(C)[C@@H]1C(O)=C(C(N)=O)C(=O)[C@@]2(O)C(O)=C3C(=O)c4c(O)cccc4[C@@](C)(O)[C@H]3[C@H](O)[C@@H]12 [OXYTETRACYCLINE]
[1]
  MIC: 3 µg/mL (≈ 6.52 µM)
Staphylococcus aureus
  MIC: 3 µg/mL (≈ 6.52 µM)
Pseudomonas aeruginosa
  MIC: 12.5 µg/mL (≈ 27.1 µM)
Escherichia coli
  MIC: 6.25 µg/mL (≈ 13.6 µM)
Klebsiella pneumoniae
  MIC: 12.5 µg/mL (≈ 27.1 µM)
Proteus vulgaris
  MIC: 12.5 µg/mL (≈ 27.1 µM)
Salmonella typhi
  MIC: 3 µg/mL (≈ 6.52 µM)
